From patent US6780608B1, “Human type 3 ryanodine receptor protein and DNA molecules coding therefor” (priority 1997, dated 2004)
Entries after “also recorded” stand apart in the source; their conditions may differ.

Tests used:
U373 cells = test: Intracellular calcium (aequorin luminescence) in U373 cells; format: cell-based, human; details: for increase in intracellular calcium after addition of ryanodine: ryanodine 100 mM as printed, U373 cells, n=2 out of 4 react, 2 out of 4 do not react
Method: (§1) The luminescence was determined using the method recently published (Maeda, A. et al., Anal. Biochem. 242, (1996), 58-66). To do this the cells (1×10^5 cells/vessel) were transferred into the solution of the calcium assay having the following composition (mM): 140 NaCl, 5 KCl, 1.5 MgCl2, 2.5 CaCl2, 5 glucose and 10 HEPES, pH 7.4 adjusted using NaOH, including […] of coelenterazine, the intermediate substrate of aequorine, and incubated for 6 hours at 37° C. The system for measuring luminescence consisted of the spectrofluorometer CAF-110 (Jasco) (Hakamata Y. et al., FEBS Lett. 352, (1994), 206-210), which is connected to a luminescence unit PL-03 (Jasco).
(§2) The total amount of aequorine activity was measured, after permeabilisation of the cells with digitonin, in a final concentration of […].

H4 cells = test: Intracellular calcium (aequorin luminescence) in H4 cells; format: cell-based, human; details: H4 neuroglyoma cells
Method: as §1, §2

[1] = test system: non-injected dyspedic myotubes; test: Intracellular calcium signal (fluo-3) in non-injected dyspedic myotubes; format: cell-based, mice; details: 1 mM caffeine, n=0 out of 20 reacted
Text: (§3) The cDNA insert was constructed from the following fragments: EcoRI(vector)/MroI(1232) obtained from IhBRR22, MroI(1232)/HindIII(2956) from IhBRR61, HindIII(2956)/BcII(3506) from IhBRR501, BcII(3506)/PmaCI(4750) from IhBRR51, PmaCI(4750)/PstI(7339) from IhBRR53, PstI(7339)/ClaI(9559) from IhBRR411, ClaI(9559)/SpeI(10569) from IhBRR79, SpeI(10569)/ApaI(11451) from IhBRR407, ApaI(11451)/EcoRI(11815) from IhBRR502, EcoRI(11815)/EcoRI(14861) from IhBRR91. The expression plasmid of the chimeric ryanodine receptor cDNA from human RyR3 and rabbit RyR2 was constructed as follows: the SalI(vector)/PmaCI(5038) fragment was rabbit RyR2 cDNA (Nakai, J. et al. FEBS Lett. 271 (1990), 169-177) and the PmaCI(4750)/NotI(vector) fragment from human RyR3-cDNA was ligated into the SalI/NotI cutting site of pCI-neo. Cultures of myotubes from RyR1-deficient (dyspedic) mice and cDNA injection are already known (Nakai, J. et al., Nature 380, (1996), 72-75). Changes in fluorescence (dimensionless random units) were measured after loading the myotubes with fluo-3 AM (Garcia, J., and Beam, K. G., J. Gen. Physiol. 103, (1994), 107-123). […] The washing solution used was normal Nager-Ringer solution of the following composition (mM): 145 NaCl, 5 KCl, 2 CaCl2, 1 MgCl2, 10 HEPES, pH 7.4 adjusted using NaOH. The temperature was 20-22° C.

[2] = test system: chimeric RyR from rabbit RyR2 and human RyR3; test: Intracellular calcium signal (fluo-3) in dyspedic myotubes injected with chimeric human RyR3 cDNA; format: cell-based; details: 1 mM caffeine, local injection; dyspedic myotubes expressing chimeric human RyR3; n=5 out of 20 reacted
Text: as §3

Row | Molecule | increase in intracellular calcium after addition of ryanodine (U373 cells) | increase in intracellular calcium after addition of ryanodine (U373 cells; listed as Ryanodine) | increase in calcium after addition of ryanodine (H4 cells; ryanodine 100 mM [sic]) | increase in intracellular calcium after addition of caffeine (U373 cells; caffeine final concentration 10 mM, U373 astrocytoma cells, n=7, listed as Caffeine) | intracellular calcium signal as a reaction to caffeine [1] | intracellular calcium signal as a reaction to caffeine [2] | increase in calcium after addition of caffeine (H4 cells; caffeine final concentration 10 mM)
1 | ryanodine | reacted | triggers temporary calcium fluctuations | reacted | – | – | – | –
2 | Cn1c(=O)c2c(ncn2C)n(C)c1=O [caffeine] | – | – | – | no effect | do not react; also recorded: no reaction whatsoever | reacts | not to caffeine
